Assay [1] deals with store-operated calcium entry in RBL-2H3 cells. Nature of the assay: Fluorescence-based assay of store-operated calcium entry in RBL-2H3 cells. Format: cell-based. As to conditions: Rattus norvegicus, thapsigargin, FLIPR Fluo-4, read-out: RBL-2H3 (IC50, μmol). Here is the method:
B. Fluorescence-Based Assay of Store-Operated Calcium Entry in RBL-2H3 Cells.
RBL-2H3 cells are obtained from ATCC and maintained in complete medium with 10% FBS at 37° C./6% CO2.
The day prior to performing the assay, RBL-2H3 cells are plated in 50 μL of complete medium in a 384 well plate. Cells are grown at 37° C./6% CO2 overnight and grow to 50-60% confluence by the next day. On the assay day, 1.5 μM Fluo-4-AM dye (Invitrogen) in complete medium is added and incubated for 1 hour at RT. Cells are washed twice in Ca^2+-free HBSS buffer and 35 μL Ca^2+-free HBSS buffer is added to each well. 10 μL of a test compound prepared in a Ca^2+-free HBSS solution at 4.5× of the desired concentration is added to a well and incubated for 5 minutes at RT. 10 μL of thapsigargin prepared in a Ca^2+-free HBSS solution at 5.5× of the desired concentration (5.5 uM) is added to each well and incubated for an additional 25 minutes. The initial baseline fluorescence signal is measured with a FLIPR^384 (Molecular Devices) plate reader. 5 μL of 12× calcium in HBSS (12 mM) is added and changes in cellular fluorescence are measured with the FLIPR^384 plate reader. In each well, the change in the fluorescent signal as a function of time due to calcium entry into the cell is determined by calculating the difference between the fluorescent signal measured 7 seconds after calcium addition and the initial baseline fluorescence signal at time zero (t=0). This parameter is designated Upslope. The IC50 value is calculated as the concentration at which 50% of the Upslope is inhibited.

In assay [2] the target is T1, recombinant human STIM1 and Orai1 (HEK-293 cells) (Homo sapiens, UniProt Q96D31).
T1 construct: expressed in transfected cells; host or cells: HEK-293 cells stably expressing both proteins
T1 sequence (Q96D31 whole entry): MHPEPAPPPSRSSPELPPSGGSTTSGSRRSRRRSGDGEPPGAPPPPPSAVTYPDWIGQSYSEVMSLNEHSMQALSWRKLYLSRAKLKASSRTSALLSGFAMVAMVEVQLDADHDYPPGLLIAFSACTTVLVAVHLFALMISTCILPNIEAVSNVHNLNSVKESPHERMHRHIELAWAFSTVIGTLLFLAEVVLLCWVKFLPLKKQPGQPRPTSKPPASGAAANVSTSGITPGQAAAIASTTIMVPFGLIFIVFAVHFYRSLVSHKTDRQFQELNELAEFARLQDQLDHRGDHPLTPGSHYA
Nature of the assay: Fluorescence-based assay of store-operated calcium entry in Orai1/STIM1 stable cells. The class given is cell-based. Details: key to Orai1/STIM1 (IC50, μmol): A < 0.6 μmol; 0.6 μmol ≦ B ≦ 1.2 μmol; C > 1.2 μmol; — = no fit. The following applies: for IC50: FLIPR fluo-4, read-out: Orai1/STIM1 (IC50, μmol); for Orai1/STIM1 (IC50, μmol): FLIPR fluo-4. Here is the method: A. Fluorescence-Based Assay of Store-Operated Calcium Entry in Orai1/STIM1 Stable Cells.
Cells stably expressing recombinant human STIM1 and Orai1 are generated by transfecting a human Orai1 expression plasmid (pcDNA3.1-Orai1-cmyc) into HEK-293 cells stably overexpressing human STIM1 (Roos et al. 2005 JCB 169(3): 435-445). Colonies of cells stably expressing both STIM1 and Orai1 proteins are selected and then subcloned by limiting dilution. Cells were cultured at 37° C./6% CO2 in complete medium with 10% FBS and appropriate selection markers.
The day prior to performing the assay Orai1/STIM1 stable cells are plated in 50 μL of complete medium at 90-95% confluence in a 384 well plate. Cells are grown at 37° C./6% CO2 overnight. On the day of the assay, 1.5 μM fluo-4-AM (Invitrogen) in complete medium is added to the cells, which are then incubated for 1 hour at RT. Cells are washed once in Ca^2+-free HBSS (Hank's buffered saline solution) and 35 μl of Ca^2+-free HBSS is added to each well. Test compounds are added to wells in a 10 μL Ca^2+-free HBSS solution, prepared at 4.5× the desired final concentration, and incubated for 30 minutes at RT. The initial baseline fluorescence signal is then measured with a FLIPR^384 (Molecular Devices) plate reader. Calcium entry is initiated by adding 5 μl of 10× CaCl2 (10 mM) in HBSS, and changes in cellular fluorescence are measured with the FLIPR^384 plate reader. In each well, the magnitude of the fluorescence signal as a result of calcium entry into the cell is determined by calculating the difference between the peak fluorescence signal measured after calcium addition and the initial baseline fluorescence signal (designated Peak-Basal). IC50 values are typically calculated as the concentration that inhibited 50% of the Peak-Basal signal (Table A).

Each structure is given as a SMILES string.

`Cc1cc2c(cc1-c1cnc(NC(=O)c3c(C)noc3C)cn1)OC(F)(F)O2` [Example 38, N-(5-(2,2-difluoro-6-methylbenzo[d][1,3]dioxol-5-yl)pyrazin-2-yl)-3,5-dimethylisoxazole-4-carboxamide]: the IC50 in assay [1] was less than 600 nM; in assay [2], greater than 1200 nM.

For the compound `Cc1cc2c(cc1-c1ccc(NC(=O)c3cccn3C)nc1)OC(F)(F)O2` [Example 34, N-(5-(2,2-difluoro-6-methylbenzo[d][1,3]dioxol-5-yl)pyridin-2-yl)-1-methyl-1H-pyrrole-2-carboxamide], the IC50 in assay [1] was less than 600 nM; in assay [2] it was 600 to 1200 nM.

Consider `Cn1cccc1C(=O)Nc1ccc(-c2cc3c(cc2Cl)OC(F)(F)O3)cn1` [Example 1, N-(5-(6-chloro-2,2-difluorobenzo[d][1,3]dioxol-5-yl)pyridin-2-yl)-1-methyl-1H-pyrrole-2-carboxamide], for which the IC50 in assay [1] and in assay [2] was 600 to 1200 nM in each case.

Regarding `CCn1nccc1C(=O)Nc1cnc(-c2cc3c(cc2Cl)OC(F)(F)O3)cn1` [Example 32, N-(5-(6-chloro-2,2-difluorobenzo[d][1,3]dioxol-5-yl)pyrazin-2-yl)-1-ethyl-1H-pyrazole-5-carboxamide], the IC50 in assay [1] and in assay [2] was less than 600 nM in each case.

For `Cn1nc(C(F)(F)F)cc1-c1cnc(NC(=O)c2c(Cl)cnn2C)cn1` [Example 39, 4-chloro-1-methyl-N-(5-(1-methyl-3-(trifluoromethyl)-1H-pyrazol-5-yl)pyrazin-2-yl)-1H-pyrazole-5-carboxamide], the IC50 in assay [1] and in assay [2] was greater than 1200 nM each time.

On to `Cn1nc(C(F)(F)F)cc1-c1cnc(NC(=O)c2c(Cl)c(C(F)(F)F)nn2C)cn1` [Example 41, 4-chloro-1-methyl-N-(5-(1-methyl-3-(trifluoromethyl)-1H-pyrazol-5-yl)pyrazin-2-yl)-3-(trifluoromethyl)-1H-pyrazole-5-carboxamide], for which the IC50 in assay [1] and in assay [2] was greater than 1200 nM throughout.

Take `Cc1nn(C)c(C(=O)Nc2cnc(-c3cc(C(F)(F)F)nn3C)cn2)c1Cl` [Example 40, 4-chloro-1,3-dimethyl-N-(5-(1-methyl-3-(trifluoromethyl)-1H-pyrazol-5-yl)pyrazin-2-yl)-1H-pyrazole-5-carboxamide]: the IC50 in assay [1] and in assay [2] was greater than 1200 nM in each case.

As for `CCn1nccc1C(=O)Nc1ccc(-c2cc3c(cc2Cl)OC(F)(F)O3)cn1` [Example 12, N-(5-(6-chloro-2,2-difluorobenzo[d][1,3]dioxol-5-yl)pyridin-2-yl)-1-ethyl-1H-pyrazole-5-carboxamide], the IC50 in assay [1] and in assay [2] was 600 to 1200 nM each time.

On to `Cc1nc(C(F)(F)F)c(C(=O)Nc2ccc(-c3cc4c(cc3Cl)OC(F)(F)O4)cn2)s1` [Example 17, N-(5-(6-chloro-2,2-difluorobenzo[d][1,3]dioxol-5-yl)pyridin-2-yl)-2-methyl-4-(trifluoromethyl)thiazole-5-carboxamide], for which the results for the IC50 in assay [1] and in assay [2] were less than 600 nM and greater than 1200 nM, respectively.

For `Cc1cc(C(=O)Nc2ccc(-c3cc4c(cc3Cl)OC(F)(F)O4)cn2)n(C)n1` [Example 7, N-(5-(6-chloro-2,2-difluorobenzo[d][1,3]dioxol-5-yl)pyridin-2-yl)-1,3-dimethyl-1H-pyrazole-5-carboxamide], the IC50 in assay [1] was greater than 1200 nM; in assay [2], 600 to 1200 nM.

Regarding `Cn1nc(C(F)(F)F)c(Cl)c1C(=O)Nc1cnc(-c2cc3c(cc2Cl)OC(F)(F)O3)cn1` [Example 24, 4-chloro-N-(5-(6-chloro-2,2-difluorobenzo[d][1,3]dioxol-5-yl)pyrazin-2-yl)-1-methyl-3-(trifluoromethyl)-1H-pyrazole-5-carboxamide], the IC50 in assay [1] is less than 600 nM. For the same compound, in assay [2], the “Orai1/STIM1 (IC50, μmol)” value is recorded as “—”.

As to `Cn1nc(C(F)(F)F)c(Cl)c1C(=O)Nc1ccc(-c2cc3c(cc2Cl)OC(F)(F)O3)cn1` [Example 3, 4-chloro-N-(5-(6-chloro-2,2-difluorobenzo[d][1,3]dioxol-5-yl)pyridin-2-yl)-1-methyl-3-(trifluoromethyl)-1H-pyrazole-5-carboxamide], the IC50 in assay [1] is less than 600 nM. Moreover, the “Orai1/STIM1 (IC50, μmol)” value in assay [2] is listed as “—”.

As to `Cc1nn(C)c(C(=O)Nc2ccc(-c3cc4c(cc3Cl)OC(F)(F)O4)cn2)c1Cl` [Example 2, 4-chloro-N-(5-(6-chloro-2,2-difluorobenzo[d][1,3]dioxol-5-yl)pyridin-2-yl)-1,3-dimethyl-1H-pyrazole-5-carboxamide], the IC50 in assay [1] and in assay [2] was greater than 1200 nM in each case.

For `Cc1nscc1C(=O)Nc1ccc(-c2cc3c(cc2Cl)OC(F)(F)O3)cn1` [Example 15, N-(5-(6-chloro-2,2-difluorobenzo[d][1,3]dioxol-5-yl)pyridin-2-yl)-3-methylisothiazole-4-carboxamide], the IC50 in assay [1] and in assay [2] was less than 600 nM throughout.

As for `Cn1ncc(Cl)c1C(=O)Nc1cnc(-c2cc3c(cc2Cl)OC(F)(F)O3)cn1` [Example 29, 4-chloro-N-(5-(6-chloro-2,2-difluorobenzo[d][1,3]dioxol-5-yl)pyrazin-2-yl)-1-methyl-1H-pyrazole-5-carboxamide], the IC50 in assay [1] and in assay [2] was less than 600 nM throughout.

Consider `Cn1ncc(Cl)c1C(=O)Nc1ccc(-c2cc3c(cc2Cl)OC(F)(F)O3)cn1` [Example 9, 4-chloro-N-(5-(6-chloro-2,2-difluorobenzo[d][1,3]dioxol-5-yl)pyridin-2-yl)-1-methyl-1H-pyrazole-5-carboxamide], for which the figures for the IC50 in assay [1] and in assay [2] were less than 600 nM and 600 to 1200 nM, respectively.

For `O=C(Nc1ccc(-c2cc3c(cc2Cl)OC(F)(F)O3)cn1)c1nsc(Cl)c1Cl` [Example 16, 4,5-dichloro-N-(5-(6-chloro-2,2-difluorobenzo[d][1,3]dioxol-5-yl)pyridin-2-yl)isothiazole-3-carboxamide], the IC50 in assay [1] is greater than 1200 nM. Moreover, the “Orai1/STIM1 (IC50, μmol)” value in assay [2] is listed as “—”.

For the compound `Cc1noc(C)c1C(=O)Nc1cnc(-c2cc3c(cc2Cl)OC(F)(F)O3)cn1` [Example 31, N-(5-(6-chloro-2,2-difluorobenzo[d][1,3]dioxol-5-yl)pyrazin-2-yl)-3,5-dimethylisoxazole-4-carboxamide], the IC50 was less than 600 nM in assay [1] and 600 to 1200 nM in assay [2].

For `O=C(Nc1ccc(-c2cc3c(cc2Cl)OC(F)(F)O3)cn1)c1ccnn1C(F)F` [Example 13, N-(5-(6-chloro-2,2-difluorobenzo[d][1,3]dioxol-5-yl)pyridin-2-yl)-1-(difluoromethyl)-1H-pyrazole-5-carboxamide], the IC50 in assay [1] is greater than 1200 nM; in assay [2], 600 to 1200 nM.

`CCn1nc(C)cc1C(=O)Nc1ccc(-c2cc3c(cc2Cl)OC(F)(F)O3)cn1` [Example 6, N-(5-(6-chloro-2,2-difluorobenzo[d][1,3]dioxol-5-yl)pyridin-2-yl)-1-ethyl-3-methyl-1H-pyrazole-5-carboxamide]: the IC50 in assay [1] and in assay [2] was greater than 1200 nM each time.

(Values after patent publication US9856240B2, “Compounds that modulate intracellular calcium” (CalciMedica, Inc., priority 2011, dated 2018).)
